US12139498B1, “Positive allosteric modulators of the muscarinic acetylcholine receptor M4” (Vanderbilt University, priority 2023, dated 2024)

Experiments:
male Sprague-Dawley rats = test: Amphetamine-induced hyperlocomotion in rats; conditions: 10 mg/kg p.o., amphetamine 0.25 mg/kg s.c., p<0.001
Human M4 = biological target: T1, Human M4 (Homo sapiens, UniProt P08173); test: M4 cell-based functional assay (calcium mobilization); parameters: expressed in transfected cells; conditions: for Emax at 30 µM: % ACh maximum at 30 μM; for EC50: CHO-K1 hM4-Gqi5 cells, calcium flux, increase in EC20 acetylcholine response
T1 sequence (P08173 1-479): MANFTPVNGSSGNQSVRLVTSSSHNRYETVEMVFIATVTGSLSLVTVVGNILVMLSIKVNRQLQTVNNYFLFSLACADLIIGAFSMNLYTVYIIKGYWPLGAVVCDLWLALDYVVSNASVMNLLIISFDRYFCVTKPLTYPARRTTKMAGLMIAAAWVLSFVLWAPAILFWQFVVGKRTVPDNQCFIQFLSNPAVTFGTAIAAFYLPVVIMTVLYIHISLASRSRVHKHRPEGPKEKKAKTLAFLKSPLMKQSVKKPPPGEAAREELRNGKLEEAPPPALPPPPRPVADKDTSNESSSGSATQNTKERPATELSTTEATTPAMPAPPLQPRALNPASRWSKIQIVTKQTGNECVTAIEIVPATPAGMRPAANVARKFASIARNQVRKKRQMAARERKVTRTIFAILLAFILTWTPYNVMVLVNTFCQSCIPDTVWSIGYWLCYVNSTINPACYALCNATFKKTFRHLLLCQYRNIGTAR
In short: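 CHO-K1 cells stably co-expressing hM4 and chimeric Gqi5, loaded with Fluo-4-AM (1.15 μM final, 45 min, 37° C). Compound added ~140 s before EC20 then EC80 acetylcholine; calcium flux by kinetic fluorescence (ex 480/em 530 nm), expressed as fold over basal and normalized to maximal ACh response (1 mM).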

SMILES	percent reversal of amphetamine-induced hyperlocomotion (male Sprague-Dawley rats) [%]	Emax at 30 µM (Human M4) [%]	EC50 (Human M4) [µM]
Cc1nnc2sc(C(=O)NCc3ccc(S(=O)(=O)C(F)(F)F)cc3)c(N)c2c1C [VU0467154, reference compound]	52.7		
Cc1c(C#N)nnc(N2CCc3nc(Nc4ccccc4F)sc3C2)c1C [Compound 5, 6-(2-((2-fluorophenyl)amino)-6,7-dihydrothiazolo[5,4-c]pyridin-5(4H)-yl)-4,5-dimethylpyridazine-3-carbonitrile]		43	> 10
Cc1cc2nc(C(=O)NCc3cncs3)cc(=O)n2nc1N1CCc2nc(Br)sc2C1 [Compound 42, 7-(2-bromo-6,7-dihydrothiazolo[5,4-c]pyridin-5(4H)-yl)-8-methyl-4-oxo-N-(thiazol-5-ylmethyl)-4H-pyrimido[1,2-b]pyridazine-2-carboxamide]		87	0.418
Brc1nc2c(s1)CN(c1ncnc3ccsc13)CC2 [Compound 26, 2-bromo-5-(thieno[3,2-d]pyrimidin-4-yl)-4,5,6,7-tetrahydrothiazolo[5,4-c]pyridine]		98	0.43
Cc1c(C#N)nnc(N2CCc3nc(Br)sc3C2)c1C [Compound 10, 6-(2-bromo-6,7-dihydrothiazolo[5,4-c]pyridin-5(4H)-yl)-4,5-dimethylpyridazine-3-carbonitrile]		85	0.114
Cc1c(N2CCc3nc(C4(F)CC4)sc3C2)nc2n[nH]c(=O)n2c1C [Compound 69, 7-(2-(1-fluorocyclopropyl)-6,7-dihydrothiazolo[5,4-c]pyridin-5(4H)-yl)-5,6-dimethyl-[1,2,4]triazolo[4,3-a]pyrimidin-3(2H)-one]		88	0.018
Cc1cc2nccnc2nc1N1CCc2nc(C3(C)CC3)sc2C1 [Compound 55, 2-(1-methylcyclopropyl)-5-(7-methylpyrido[2,3-b]pyrazin-6-yl)-4,5,6,7-tetrahydrothiazolo[5,4-c]pyridine]		76	0.253
Cc1csc2ncnc(N3CCc4nc(Br)sc4C3)c12 [Compound 23, 2-bromo-5-(5-methylthieno[2,3-d]pyrimidin-4-yl)-4,5,6,7-tetrahydrothiazolo[5,4-c]pyridine]		82	0.204
